Patent publication US6432681B1, “Compositions for treating Escherichia coli urinary tract infections” (The Regents of the University of Washington, priority 1992, dated 2002)

Experiments:
[1] = tested on: Escherichia coli R45; test: Bacterial overlay assay: binding of 35S-labelled E. coli R45 to glycolipids separated on HPTLC; details: for binding of E. coli R45 to glycolipid standards: GSL standards separated on HPTLC plates; for reaction of E. coli R45 with SGG and DSGG standards (FIG. 1A): standards run beside vaginal epithelial cell gangliosides, autoradiogram
Experimental: E. coli R45 was isolated from a person with cystitis which had the pap family genotype, expressing both the P and F adhesins (Stapleton, A. et al., J. Infect Dis., 163:773-779, 1989). Organisms were kept frozen in 50% glycerol/50% Luria broth (Maniatis, T. et al., Molecular Cloning: A Laboratory Manual, 1982) at −70° C. until the night before use, when they were streaked onto Luria agar plates (Maniatis, T. et al., Molecular Cloning: A Laboratory Manual, 1982) to promote fimbrial expression and grown overnight at 37° C. On the day of use, bacteria were scraped from the plate, resuspended in M9 medium (Maniatis, T. et al., Molecular Cloning: A Laboratory Manual, 1982) without amino acids, and shaken at 37° C. for 40 minutes to deplete cellular methionine stores. ^35S-methionine (Trans^35S-label, 1137 Ci/mmol, ICN Biochemicals, Irvine, California) was then added at 200 μCi per 10^10 organisms. The cells were shaken for one hour, washed three times in PBS and resuspended in PBS (pH 7.3), and counted in a scintillation counter to give a final activity of approximately 0.01 to 0.02 cpm/organism.
(§1) Glycolipids (10 to 40 μg/lane) were chromatographed on glass HPTLC plates (Whatman) in CMW (50:40:10 by volume) with 0.05% CaCl2 with one plate run in parallel for orcinol staining. Plates were dried, dipped for 1 minute in diethyl ether containing 0.5% polyisobutylmethacrylate, dried, and preincubated in 1% bovine serum albumin (BSA)/PBS for one hour, then washed three times in PBS. Radiolabelled bacteria were overlaid (10^8 cpm total per plate) and the plates were gently rocked for one hour, washed four times in PBS and subjected to autoradiography.
The binding of metabolically radiolabelled E. coli strain R45 to glycolipid standards separated on HPTLC plates was determined using a broad panel of GSLs with varying carbohydrate moieties, as shown in Table 2.
Subsequent experiments were conducted to identify the unique E. coli-binding GSL band detected in nonsecretors' vaginal epithelial cells. Total upper neutral GSLs and total upper gangliosides were extracted from vaginal epithelial cells pooled in equal quantities from 5 nonsecretors and 9 secretors and reacted with radiolabelled E. coli R45.
Lane 1 contains ceramide trihexoasyl and globoside standards; Lane 2 contains total lower phase GSLs from the nonsecretors; Lane 3 contains total lower phase GSLs from the secretors; Lane 4 contains the Forssman antigen standard; Lanes 5 and 6 contain total upper neutral GSLs from nonsecretors and secretors, respectively; Lanes 7 and 10 contain gal-globoside, sialosyl gal-globoside, and disialosyl gal-globoside standards; Lanes 8 and 9 contain total upper phase gangliosides from nonsecretors and secretors, respectively.

[2] = tested on: MAb ID4 (directed against SGG); test: Radioimmunoassay of GSLs immobilized in microtiter wells with MAb ID4; type: binding; details: standards from human pancreas, bovine brain (GD1a), human placenta (disialosyl I)
Experimental: Radioimmunoassays of GSLs immobilized in microtiter wells were performed according to the method of Karlsson (Karlsson, K.-A. et al., Methods Enzymol., 138:220-232, 1987).
The SGG and DSGG bands from the nonsecretors' vaginal epithelial cell extracts were then reacted with ID4 in a radioimmunoassay, shown in FIG. 3.
In FIG. 3, the dotted line indicates sialosyl gal-globoside (SGG) standard from human pancreas; the solid line indicates the band co-migrating with SGG eluted from TLC of nonsecretors' extracted vaginal epithelial cells; the dashed line indicates eluted band co-migrating with DSGG from nonsecretors and the following GSL standards: gal-globoside and DSGG from human pancreas, GD1a from bovine brain, and disialosyl I from human placenta.

[3] = tested on: E. coli isolates R45, IA2, JJ122, pDC1 and pJFK102; test: Bacterial overlay assay: binding of five 35S-labelled E. coli UTI isolates to serially diluted globo-series GSLs, radioactivity counted; parameters: species or system Escherichia coli; details: all five isolates; GSL serially diluted from 300 ng to 18.25 ng on HPTLC
Experimental: as §1
Five isolates of E. coli were isolated from patients with UTI, R45 (wild-type cystitis isolate expressing class II pap adhesin), IA2 (wild-type isolate expressing class II pap adhesin), JJ122 (expresses class I pap adhesin), pDC1 (a subclone of IA2, expresses class II pap adhesin) and pJFK102 (expresses class III pap adhesin). The five strains were labelled metabolically with ^35S and exposed to various glycosphingolipids (GSL) separated by HPTLC in the bacterial overlay assay described hereinabove. The amount of radioactivity in the area of each GSL was counted. Controls included HB101.
The GSL's tested were CTH (globotriaosylceramide, isolated from human red blood cells), globoside (also isolated from human erythrocytes), SGG (isolated from vaginal epithelial cells or human kidney), CMH (ceramide monohexoside isolated from adenocarcinoma of colon, negative control) and DSGG (isolated from the same sources as SGG). The GSL's were serially diluted beginning with 300 ng and ending at 18.25 ng.

Row | Substance | binding of E. coli R45 to glycolipid standards [1] | reaction of antibody ID4 with GSL standards (FIG. 3) [2] | level of binding of the E. coli isolates to the GSL [3] | reaction of E. coli R45 with SGG and DSGG standards (FIG. 1A) [1]
1 | (Fucα1-2)Galβ1-3 GalNAcβ1-3 Galα1-4 Galβ1-4 Glcβ1-1cer [Globo H] | bound | – | – | –
2 | GD1a | – | did not bind | – | –
3 | GalNAcα1-3 (Fucα1-2)Galβ1-3 GalNacβ1-3 Galα1-4 Galβ1-4 Glcβ1-1cer [Globo A] | bound | – | – | –
4 | GalNAcα1-3 Galβ1-3 GalNAcβ1-3 Galα1-4 Galβ1-4 Glcβ1-1cer [Forssman] | bound | – | – | –
5 | GalNAcβ1-3 Galα1-4 Galβ1-4 Glcβ1-1cer [Globoside] | bound | – | lower than to DSGG | –
6 | Galα1-4 Galβ1-4 Glcβ1-1cer [CTH] | – | – | lower than to DSGG | –
7 | Galβ1-3 GalNAcβ1-3 Galα1-4 Galβ1-4 Glcβ1-1cer [Gal-globoside] | bound | did not bind | – | –
8 | NeuAcα2-3 (NeuAcα2-6)Galβ1-3 GalNAcβ1-3 Galα1-4 Galβ1-4 Glcβ1-1cer [DSGG] | – | did not bind | – | reacted
9 | NeuAcα2-3 Galβ1-3 GalNAcβ1-3 Galα1-4 Galβ1-4 Glcβ1-1ce [SGG] | – | reacted | highest binding | reacted
